Source: patent US5484717A, “Antibiotic 31F508α1, 31F508α2, 31F508β1, 31F508β2” (American Cyanamid Company, priority 1995, dated 1996)
Values after ≈ are worked out from the molar mass of the structure shown.

Key:
[1] = test system: B. cereus (Bacto); assay: In vitro antibacterial activity, agar dilution MIC; format: cell-based; conditions: Bacillus cereus, 18 h, without sheep blood, read-out: Minimum Inhibitory Concentration
Protocol: (§1) The in vitro antibacterial activity of 31F508α1 and α2 is determined against a spectrum of gram-positive and gram-negative bacteria by a standard agar dilution method. Mueller-Hinton agar with and without 5% sheep blood and two-fold decreasing concentrations of either 31F508α1 or α2 are poured into petri dishes. The agar surfaces are inoculated with 1 to 5×10^4 colony forming units of bacteria by means of the Steers replicating device. The lowest concentration of antibiotic that inhibits growth of a bacterial strain after 18 hours incubation is recorded as the minimal inhibitory concentration for that strain. The results are given in Table V with sheeps blood added to the agar.

[2] = test system: CNS (4615); assay: In vitro antibacterial activity, agar dilution MIC; format: cell-based; conditions: 18 h, read-out: Minimum Inhibitory Concentration, CNS (4615), without sheep blood
Protocol: as §1

[3] = test system: CNS (ID-3120); assay: In vitro antibacterial activity, agar dilution MIC; format: cell-based; conditions: 18 h, read-out: Minimum Inhibitory Concentration, CNS (ID-3120), without sheep blood
Protocol: as §1

[4] = test system: CNS (ID-3941); assay: In vitro antibacterial activity, agar dilution MIC; format: cell-based; conditions: 18 h, read-out: Minimum Inhibitory Concentration, CNS (ID-3941), without sheep blood
Protocol: as §1

[5] = test system: E. Avium (ID-3953); assay: In vitro antibacterial activity, agar dilution MIC; format: cell-based; conditions: Enterococcus avium, 18 h, without sheep blood, read-out: Minimum Inhibitory Concentration
Protocol: as §1

[6] = test system: E. coli (ATCC 25922); assay: In vitro antibacterial activity, agar dilution MIC; format: cell-based; conditions: Escherichia coli, ATCC25922, without sheep blood, 18 hours, read-out: Minimum Inhibitory Concentration
Protocol: as §1

[7] = test system: E. coli (J2175); assay: In vitro antibacterial activity, agar dilution MIC; format: cell-based; conditions: Escherichia coli, 18 h, without sheep blood, read-out: Minimum Inhibitory Concentration
Protocol: as §1

[8] = test system: E. coli (J2445); assay: In vitro antibacterial activity, agar dilution MIC; format: cell-based; conditions: Escherichia coli, 18 h, without sheep blood, read-out: Minimum Inhibitory Concentration
Protocol: as §1

[9] = test system: E. faecalis (12201); assay: In vitro antibacterial activity, agar dilution MIC; format: cell-based; conditions: Enterococcus faecalis, 18 h, without sheep blood, read-out: Minimum Inhibitory Concentration
Protocol: as §1

[10] = test system: E. faecalis (ATCC 29212); assay: In vitro antibacterial activity, agar dilution MIC; format: cell-based; conditions: Enterococcus faecalis, ATCC29212, 18 h, without sheep blood, read-out: Minimum Inhibitory Concentration
Protocol: as §1

[11] = test system: E. faecalis (ID-1829); assay: In vitro antibacterial activity, agar dilution MIC; format: cell-based; conditions: Enterococcus faecalis, 18 h, without sheep blood, read-out: Minimum Inhibitory Concentration
Protocol: as §1

[12] = test system: E. faecalis (ID-2131); assay: In vitro antibacterial activity, agar dilution MIC; format: cell-based; conditions: Enterococcus faecalis, 18 h, without sheep blood, read-out: Minimum Inhibitory Concentration
Protocol: as §1

[13] = test system: E. faecalis (ID-4168); assay: In vitro antibacterial activity, agar dilution MIC; format: cell-based; conditions: Enterococcus faecalis, 18 h, without sheep blood, read-out: Minimum Inhibitory Concentration
Protocol: as §1

[14] = test system: E. faecium (12202); assay: In vitro antibacterial activity, agar dilution MIC; format: cell-based; conditions: Enterococcus faecium, 18 h, without sheep blood, read-out: Minimum Inhibitory Concentration
Protocol: as §1

[15] = test system: E. faecium (ID-3301); assay: In vitro antibacterial activity, agar dilution MIC; format: cell-based; conditions: Enterococcus faecium, 18 h, without sheep blood, read-out: Minimum Inhibitory Concentration
Protocol: as §1

[16] = test system: E. faecium (ID-4133); assay: In vitro antibacterial activity, agar dilution MIC; format: cell-based; conditions: Enterococcus faecium, without sheep blood, 18 hours, read-out: Minimum Inhibitory Concentration
Protocol: as §1

[17] = test system: M. morganii (VGH 84-11); assay: In vitro antibacterial activity, agar dilution MIC; format: cell-based; conditions: Morganella morganii, 18 h, without sheep blood, read-out: Minimum Inhibitory Concentration
Protocol: as §1

[18] = test system: P. aeruginosa (ATCC 27853); assay: In vitro antibacterial activity, agar dilution MIC; format: cell-based; conditions: Pseudomonas aeruginosa, ATCC27853, without sheep blood, 18 hours, read-out: Minimum Inhibitory Concentration
Protocol: as §1

[19] = test system: S. Pyogenes (ID-3187); assay: In vitro antibacterial activity, agar dilution MIC; format: cell-based; conditions: Streptococcus pyogenes, 18 h, without sheep blood, read-out: Minimum Inhibitory Concentration
Protocol: as §1

[20] = test system: S. agalactiae (ID-4079); assay: In vitro antibacterial activity, agar dilution MIC; format: cell-based; conditions: Streptococcus agalactiae, 18 h, read-out: Minimum Inhibitory Concentration, S. acralactiae (ID-4079), without sheep blood
Protocol: as §1

[21] = test system: S. lutea (ATCC 9341); assay: In vitro antibacterial activity, agar dilution MIC; format: cell-based; conditions: Micrococcus luteus, ATCC9341, without sheep blood, 18 hours, read-out: Minimum Inhibitory Concentration
Protocol: as §1

[22] = test system: Staphylococcus aureus (ATCC 29213); assay: In vitro antibacterial activity, agar dilution MIC; format: cell-based; conditions: ATCC29213, 18 h, Staphylococcus aureus (ATCC 29213-), without sheep blood, read-out: Minimum Inhibitory Concentration
Protocol: as §1

[23] = test system: Staphylococcus aureus (ID-2371); assay: In vitro antibacterial activity, agar dilution MIC; format: cell-based; conditions: 18 h, without sheep blood, read-out: Minimum Inhibitory Concentration
Protocol: as §1

[24] = test system: Staphylococcus aureus (ID-2727); assay: In vitro antibacterial activity, agar dilution MIC; format: cell-based; conditions: 18 h, without sheep blood, read-out: Minimum Inhibitory Concentration
Protocol: as §1

[25] = test system: Staphylococcus aureus (ID-3105); assay: In vitro antibacterial activity, agar dilution MIC; format: cell-based; conditions: 18 h, without sheep blood, read-out: Minimum Inhibitory Concentration
Protocol: as §1

[26] = test system: Staphylococcus aureus (ID-4379); assay: In vitro antibacterial activity, agar dilution MIC; format: cell-based; conditions: 18 h, without sheep blood, read-out: Minimum Inhibitory Concentration
Protocol: as §1

[27] = test system: Staphylococcus aureus (MEMC-89-4); assay: In vitro antibacterial activity, agar dilution MIC; format: cell-based; conditions: 18 h, without sheep blood, read-out: Minimum Inhibitory Concentration
Protocol: as §1

[28] = test system: Staphylococcus aureus (SMITH); assay: In vitro antibacterial activity, agar dilution MIC; format: cell-based; conditions: 18 h, without sheep blood, read-out: Minimum Inhibitory Concentration
Protocol: as §1

[29] = test system: Staphylococcus haemolyticus (ID-4061); assay: In vitro antibacterial activity, agar dilution MIC; format: cell-based; conditions: 18 h, without sheep blood, read-out: Minimum Inhibitory Concentration
Protocol: as §1

[30] = test system: Streptococcus pneumoniae (ID-4444); assay: In vitro antibacterial activity, agar dilution MIC; format: cell-based; conditions: 18 h, without sheep blood, read-out: Minimum Inhibitory Concentration
Protocol: as §1

[31] = test system: Escherichia coli#311; assay: In vivo antibacterial activity in intraperitoneally infected mice; set-up: species or system female CD-1 mice; conditions: one half hour after infection
Protocol: The in vivo antibacterial activity of antibiotic 31F508α2 is established by infecting female CD-1 mice from Charles River Laboratories,weighing 20+-- 2 g each, intraperitoneally of sufficient bacterial cells suspended in either broth or 5% hog gastric mucin to kill non-treated controls within 24-48 hours. Two-fold serially diluted doses of the antibacterial agent contained in phosphate buffered saline (PBS, pH 7.4, 0.01M) are administered intravenously (0.2 ml) or contained in 0.2% aqueous agar, subcutaneously (0.5 ml) or orally (0.5 ml) one half hour after infection. In each test, five mice are treated per dose level.

[32] = Stability (conversion in neutral or basic solution; decomposition on drying); format: physicochemical; conditions: listed as α2
Protocol: The crude product is then separated into the α1, α2, β1 and β2 components and further purified by high performance liquid chromatography on a reverse-phase column equilibrated with 0.1% trifluoroacetic acid in water followed by slution with an acetonitrile gradient to 10%. Active fractions are pooled and freeze dried. Freeze dried fractions are dissolved in 0.01M hydrochloric acid, applied to a reverse phase column and eluted with an acetonitrile gradient to 10% resolves the two components α1 and α2. […] Beta is the quinone form of α1 or α2 having lost hydrogens from the oxygens connected to carbon10 and 13.
The freeze dried material is suspended in methanol and the insolubles removed by filtration. The soluble material is concentrated to dryness and the concentrate dissolved in 1% trifluoroacetic acid in water. Insolubles are removed by centrifugation. The soluble material is loaded onto a preparative reverse phase C18 column equilibrated with 0.1% trifluoroacetic acid in water. The column is eluted with an acetonitrile gradient to 10%. Active fractions containing the alpha component are pooled and freeze dried. Active fractions containing the beta component are adjusted to pH 8 with solid ammonium bicarbonate and extracted with methylene chloride. The beta component is stored in methylene chloride as drying leads to rapid decomposition. […]

## COc1c(C)c(O)c2c(c1O)C1COC3C4CC5C(C(C2N2CCOC52)N13)N4C (stereo not drawn) [31F508α2]
[1]
  MIC: 250 ng/mL (≈ 623 nM)
[2]
  MIC: 2 ng/mL (≈ 4.98 nM)
[3]
  MIC: 2 ng/mL (≈ 4.98 nM)
[4]
  MIC: 2 ng/mL (≈ 4.98 nM)
[5]
  MIC: 30 ng/mL (≈ 74.7 nM)
[6]
  MIC: 500 ng/mL (≈ 1250 nM)
[7]
  MIC: 1000 ng/mL (≈ 2490 nM)
[8]
  MIC: 4 ng/mL (≈ 9.96 nM)
[9]
  MIC: 15 ng/mL (≈ 37.4 nM)
[10]
  MIC: 60 ng/mL (≈ 149 nM)
[11]
  MIC: 60 ng/mL (≈ 149 nM)
[12]
  MIC: 250 ng/mL (≈ 623 nM)
[13]
  MIC: 120 ng/mL (≈ 299 nM)
[14]
  MIC: 15 ng/mL (≈ 37.4 nM)
[15]
  MIC: 120 ng/mL (≈ 299 nM)
[16]
  MIC: 2 ng/mL (≈ 4.98 nM)
[17]
  MIC: 500 ng/mL (≈ 1250 nM)
[18]
  MIC: 2000 ng/mL (≈ 4980 nM)
[19]
  MIC: 2 ng/mL (≈ 4.98 nM)
[20]
  MIC: 4 ng/mL (≈ 9.96 nM)
[21]
  MIC: 2 ng/mL (≈ 4.98 nM)
[22]
  MIC: 8 ng/mL (≈ 19.9 nM)
[23]
  MIC: 4 ng/mL (≈ 9.96 nM)
[24]
  MIC: 2 ng/mL (≈ 4.98 nM)
[25]
  MIC: 4 ng/mL (≈ 9.96 nM)
[26]
  MIC: 4 ng/mL (≈ 9.96 nM)
[27]
  MIC: 4 ng/mL (≈ 9.96 nM)
[28]
  MIC: 2 ng/mL (≈ 4.98 nM)
[29]
  MIC: 2 ng/mL (≈ 4.98 nM)
[30]
  MIC: 2 ng/mL (≈ 4.98 nM)
[31]; SIV (intravenous), 0.25 Mg/Kg
  Survival Ratios: 0/5
[31]; SIV (intravenous), 0.5 Mg/Kg
  Survival Ratios: 0/5
[31]; SIV (intravenous), 1 Mg/Kg
  Survival Ratios: 0/5
[31]; SIV (intravenous), 2 Mg/Kg
  Survival Ratios: 0/5
[31]; SIV (intravenous), 4 Mg/Kg
  Survival Ratios: 0/5
[31]; SOD (oral), 0.25 Mg/Kg
  Survival Ratios: 0/5
[31]; SOD (oral), 0.5 Mg/Kg
  Survival Ratios: 0/5
[31]; SOD (oral), 1 Mg/Kg
  Survival Ratios: 0/5
[31]; SOD (oral), 2 Mg/Kg
  Survival Ratios: 0/5
[31]; SOD (oral), 4 Mg/Kg
  Survival Ratios: 0/5
[31]; SOD (oral), 8 Mg/Kg
  Survival Ratios: 0/5
[31]; SSC (subcutaneous), 0.25 Mg/Kg
  Survival Ratios: 0/5
[31]; SSC (subcutaneous), 0.5 Mg/Kg
  Survival Ratios: 0/5
[31]; SSC (subcutaneous), 1 Mg/Kg
  Survival Ratios: 0/5
[31]; SSC (subcutaneous), 2 Mg/Kg
  Survival Ratios: 0/5
[31]; SSC (subcutaneous), 4 Mg/Kg
  Survival Ratios: 0/5
[31]; SSC (subcutaneous), 8 Mg/Kg
  Survival Ratios: 0/5
[32]
  Conversion to the beta (quinone) form: converts to the beta form
